Test results taken from patent US10011555B2, “Methods of treating Parkinson's disease” (University of Macau, priority 2013, dated 2018).

Experiments:
[1] = tested on: primary cerebellar granule neurons (CGNs); assay: MPP+-induced primary CGNs damage, cell viability by MTT; assay type: cell-based, Sprague-Dawley rats; conditions: pre-treated 6 μM to 50 μM for 2 hours, then 150 μM MPP+ for 36 hours
Protocol: Primary cerebellar granule neurons (CGNs) were prepared from 8 days old Sprague-Dawley rats, as described in a previous publication (Du, Bales et al. 1997). CGNs cultured in vitro for 7 days were pre-treated with serial concentrations of compounds 1-5 from 6 μM to 50 μM respectively for 2 hours, vehicle group was incubated with 0.1% DMSO. The cells were then exposed to 150 μM MPP^+ for 36 hours. For assessment of the cell viability, 15 μl of 5 mg/ml MTT solution was added to each well containing cell in 100 μl of medium, and the plates were incubated for 4 hours in a humidified incubator at 37° C. After incubation, 100 μl of absolute DMSO was added and incubated for 10 min. Absorbance at 570 nm of each well was measured with a microplate reader.

[2] = tested on: TH-positive dopaminergic neurons in the SNpc; assay: TH immunohistochemistry of SNpc in MPTP-injected mice; assay type: in vivo, C57BL/6J mice
Protocol: Adult male C57BL/6J mice (8-10 weeks of age, 18-22 g) were used in this study. The animals were maintained in 12/12 h light/dark cycle and allowed access to food and water ad libitum. They were allowed to acclimate for 7 days before treatment. […] Then the mice were injected intraperitoneally (i.p.) with 20 mg/kg MPTP hydrochloride (Sigma Aldrich, St. Louis, Mo.), at 2 h internal for total 4 injections. Normal control group were received saline (0.1 mL/10 g) by i.p. One hour prior each MPTP injection, compound 1 (5, 10 and 20 mg/kg), rasagiline (1 mg/kg) and equal volume of vehicle (olive oil, 0.1 mL/10 g) were administrated by i.g. Then, compound 1, rasagiline or vehicle was given by i.g. once per day for total 7 days (day 1-7). Each of six groups was comprised of 10 mice. Mice were sacrificed for tissue preparation on the day 9 as described in FIG. 6. Mice in each group were anesthetized and perfused intracardially with 0.9% sodium chloride containing heparin, and then fixed with 4% paraformaldehyde (PFA). […] The results were analyzed by counting the numbers of TH-positive cells at ×10 magnifications on a stereomicroscope (BX51, Olympus Corp. Japan). TH-positive cells in 8 position-matched sections of each mouse were counted manually by operator who was blinded to the drug treatment. […]

[3] = tested on: primary cerebellar granule neurons (CGNs); assay: Synergistic neuroprotective effect of compound 1 and chrysin on MPP+-induced primary CGNs damage; assay type: cell-based, Sprague-Dawley rats; conditions: 25 and 50 μM of compound 1, p<0.05
Protocol: Primary cerebellar granule neurons (CGNs) were prepared from 8 days old Sprague-Dawley rats as described (Zhang et al., 2012). […] The cell viability was estimated similarly as in Example 5.
CGNs were also co-treated with compound 1 and chrysin to explore the pharmacological interaction between two compounds.

PC12 cells = assay: 6-OHDA-induced PC12 cell damage and cytotoxicity on PC12 cells, cell viability by MTT; assay type: cell-based, Rat
Protocol: Rat pheochromocytoma cells (PC12) cells were seeded in c100 cm dishes at a density of 1.5˜2×10^6 cells/dish. After culturing in a medium with a low serum level (F-12K medium with 0.5% FBS) for 24 hours, the cells were pretreated with serial concentrations of compound 1 from 6 μM to 50 μM for 12 hours. The cells were then exposed to 1 mM 6-OHDA for 2 hours. Cell viability of cells was assessed similarly as described in Example 5.

[4] = tested on: zebrafish dopaminergic neurons; assay: MPTP-induced dopaminergic neuron loss in zebrafish, whole-mount TH immunostaining; assay type: in vivo; conditions: co-treatment with 200 μM MPTP for 48 hours
Protocol: Zebrafish embryo was dechorinated at 1 day post fertilization (dpf) and was cultured under co-treatment of 200 μM MPTP and various concentrations of compound 1 for 48 hours. Afterwards, zebrafish was fixed in 4% paraformaldehyde in PBS for 5 hours, rinsed and stored at −20° C. in 100% EtOH. Whole-mount immunostaining was done by standard methods (Bitzur, Kam et al. 1994). Further, compound 1 can protect MPTP-induced dopaminergic neuron loss in zebrafish in a dose-dependent manner with Emax at the concentration of 5 μM as shown in FIG. 3B in which the results were expressed quantitatively as percentages of area of TH-positive cells in comparison to untreated control group.

MPTP-injected mice = assay: Behavioral testing (pole, rotarod, footprint) in MPTP-injected mice; assay type: in vivo, C57BL/6J mice; conditions: 5, 10 and 20 mg/kg i.g., 7 days, MPTP 20 mg/kg i.p. x4
Protocol: Adult male C57BL/6J mice (8-10 weeks of age, 18-22 g) were used in this study. The animals were maintained in 12/12 h light/dark cycle and allowed access to food and water ad libitum. They were allowed to acclimate for 7 days before treatment. […] Then the mice were injected intraperitoneally (i.p.) with 20 mg/kg MPTP hydrochloride (Sigma Aldrich, St. Louis, Mo.), at 2 h internal for total 4 injections. Normal control group were received saline (0.1 mL/10 g) by i.p. One hour prior each MPTP injection, compound 1 (5, 10 and 20 mg/kg), rasagiline (1 mg/kg) and equal volume of vehicle (olive oil, 0.1 mL/10 g) were administrated by i.g. Then, compound 1, rasagiline or vehicle was given by i.g. once per day for total 7 days (day 1-7). Each of six groups was comprised of 10 mice. […] All the tests were done between 9 am and 2 pm under normal animal room lighting. The pole test was performed to detect impairment of limb movement. A table tennis ball (5 cm diameter) was equipped on the top of a vertical pole (55 cm length and 1 cm diameter). The pole was wrapped with a double layer of gauze to avoid slipping. The animal was placed head upward on the table tennis ball. […] The system logs the fall as the end of the experiment for that mouse, and the total time on the rotarod was recorded. […] The average retention time on the rod was calculated. […] Their footsteps were recorded on a white absorbing paper.

zebrafish larvae = assay: MPTP-induced reduction of total distance traveled of zebrafish larvae; assay type: in vivo; conditions: 3 dpf larvae co-treated with 200 μM MPTP for 4 days
Protocol: The 3 dpf zebrafish larvae were co-treated with 200 μM MPTP and various concentrations of compound 1 for 4 days. At 7 dpf, the total distance the larvae traveled was recorded using a 96-well plate (with 1 fish/well and 12 larvae per group) filled with 200 μl embryo medium. Larvae were allowed to accommodate in the system for an hour before data acquisition. The swimming pattern of each larva was recorded for 10 min in 3 times, with each record session separated by 10 min. The total distance traveled was estimated as the distance (in mm) that the larva had moved during one session (10 min).

## Cc1ccc(O)c(C(CCC(=O)O)C(C)C)c1 (racemic) [Compound 5, 4-(2-hydroxy-5-methylphenyl)-5-methylhexanoic acid]
[1]
  concentration of Emax of neuroprotective effect on MPP+-induced primary SD rat CGNs damage: 50 µM

## Cc1ccc(O)c([C@H](CCC(=O)O)C(C)C)c1 [Compound 1, (R)-4-(2-hydroxy-5-methylphenyl)-5-methylhexanoic acid]
[2]; compound 1 5, 10 and 20 mg/kg i.g., pre- and post-treatment, 7 days
  effect on MPTP-induced TH-positive cell body loss in SNpc: significantly reduced the MPTP-induced TH-positive cell body loss in a dose-dependent manner
[3]
  cell viability vs MPP+ alone: significantly enhanced
PC12 cells; 1 mM 6-OHDA for 2 hours
  concentration of maximum efficacy (Emax) of neuroprotective effect on 6-OHDA-induced PC12 cell damage: 50 µM
PC12 cells; all tested concentrations (6 μM to 50 μM), 12 hours
  cytotoxicity on PC12 cells: did not exhibit any cytotoxicity
PC12 cells; pretreated 6 μM to 50 μM for 12 hours, then 1 mM 6-OHDA for 2 hours
  effect on 6-OHDA cytotoxicity to PC12 cells: could alleviate the cytotoxic effect in a dose-dependent manner
[4]
  effect on MPTP-induced DA neuron injury: attenuated MPTP-induced DA neuron injury in a dose-dependent manner
[4]; area of TH-positive cells
  concentration of Emax of protection against MPTP-induced dopaminergic neuron loss in zebrafish: 5 µM
MPTP-injected mice
  effect on movement abnormalities (pole test, foot printing duration and stride length, rotarod): largely corrected the movement abnormalities in a dose-dependent manner
Zebrafish larvae
  effect on MPTP-induced reduction of total distance traveled: attenuated MPTP-induced reduction of total distance traveled of the larvae in a dose dependent manner
[1]
  concentration of Emax of neuroprotective effect on MPP+-induced primary SD rat CGNs damage: 50 µM

## CC(C)[C@H](CCC(=O)O)C1=CC(C)(O)CCC1=O (stereo partly drawn) [Compound 2, (4S)-4-(3-hydroxy-3-methyl-6-oxocyclohex-1-enyl)-5-methylhexanoic acid]
[1]
  concentration of Emax of neuroprotective effect on MPP+-induced primary SD rat CGNs damage: 50 µM

## CC(C)[C@@H](CCC(=O)O)C1=CC(C)(O)CCC1=O (stereo partly drawn) [Compound 3, (4R)-4-(3-hydroxy-3-methyl-6-oxocyclohex-1-enyl)-5-methylhexanoic acid]
[1]
  concentration of Emax of neuroprotective effect on MPP+-induced primary SD rat CGNs damage: 25 µM

## Cc1ccc(O)c([C@@H](CCC(=O)O)C(C)C)c1 [Compound 4, (S)-4-(2-hydroxy-5-methylphenyl)-5-methylhexanoic acid]
[1]
  concentration of Emax of neuroprotective effect on MPP+-induced primary SD rat CGNs damage: 12 µM

## O=c1cc(-c2ccccc2)oc2cc(O)c(O)c(O)c12 [baicalein, reference compound]
PC12 cells; positive control at 100 μM
  protection of PC12 cells against 6-OHDA-induced neuronal damage: obviously protected

## C#CCN[C@@H]1CCc2ccccc21 [rasagiline, reference compound]
[2]; rasagiline 1 mg/kg i.g., same schedule
  effect on MPTP-induced TH-positive cell body loss in SNpc: prevented against the MPTP-induced TH-positive cell body loss
